Laboratory results taken from patent US5888762A, “Neurotropic growth factors comprising a homeobox peptide” (Centre National De La Recherche Scientifique (CNRS), priority 1994, dated 1999).
Ends that are not written are not given here.

What was measured:
[1] = tested on: dissociated embryonic cells; assay: Confocal microscopy of fluoresceinated peptides: internalization and nuclear accumulation; format: cell-based, rat; settings: 2 hours incubation, cells cultured 1 day before fixation
Excerpt: The cells were then washed, plated and cultured for 1 day before fixation.

[2] = tested on: dissociated rat embryonic neurons; assay: Distribution of 35S-methionine labelled peptides in cell compartments and medium; format: cell-based; settings: for internalization / translocation through the membrane: 35S-labelled peptides, 2 hours; for MEDIUM (peptide distribution, radioactivity in fraction) / NUCLEAR (peptide distribution, radioactivity in fraction) / POST-NUCLEAR (peptide distribution, radioactivity in fraction): 2 hours incubation, mean ± standard deviation of 6 experiments; for share of the peptides that reach the nuclei: within 2 hours
Protocol: Peptides pAntp50A, pAntp48S, and pAntp40P2, labelled in E. coli with ^35 S-methionine were purified and added to dissociated rat embryonic neurons. After incubation for 2 hours, the medium was recovered by centrifugation and, after lysis of the cells with NP40, nuclear and post-nuclear fractions were isolated.
Identity of the radioactive material present in the nuclei was analysed by gel electrophoresis.
After lysis of the neurons, peptide distribution in the different cell compartments and in the medium was quantified by determination of radioactivity in each fraction.

[3] = tested on: neurons removed from rat embryos (mesencephalon, spinal cord, cortex); assay: Biological effect of pAntp on neuritic growth of cultured neurons; format: cell-based; settings: rat embryo neurons in CDM medium, peptide 9 µg/ml (equivalent to 1.3M), 24 h
Protocol: The neurons removed from rat embryos (E14 to E 16) in various regions of the brain (mesencephalon, spinal cord, cortex), are inoculated into a defined medium (CHAMAK and PROCHIANTZ, DEVELOPMENT, 106, 483, 1989) which permits the survival of only the neuronal cells (CDM medium).
The peptide is added to the nerve cells at a concentration of […] (equivalent to 1.3M).

living neurons = assay: Penetration of biotinylated pAntp fragments encompassing helix 3 into living neurons; format: cell-based; settings: biotinylated peptides 10 μg/ml, 37° C., 3 hours, fluorinated streptavidin
Protocol: These peptides (10 μg/ml) were separately incubated with living neurons, at 37° C. for 3 hours.
After washing and fixation of the cells, the localisation of the peptides is checked by use of fluorinated streptavidin.

**Q.** With “pAntp40P2: mutant pAntp, Leu^40 and Thr^41 substituted by two proline residues (SEQ ID NO: 12)” as the substance, how does the “uptake and nuclear accumulation by confocal microscopy” value [1] read?
**A.** The value was “taken up by all cells in the population and significant concentrations of the peptides accumulated in the nuclei”.

**Q.** What about the “internalization / translocation through the membrane” value [2] of the same substance?
**A.** Its value is “internalized rapidly”.

**Q.** What about the “MEDIUM (peptide distribution, radioactivity in fraction)” value [2] of the same substance?
**A.** Its value is 87.5 ± 2.5%.

**Q.** What about the “NUCLEAR (peptide distribution, radioactivity in fraction)” value [2] of the same substance?
**A.** Its value is 11.5 ± 2%.

**Q.** What about the “POST-NUCLEAR (peptide distribution, radioactivity in fraction)” value [2] of the same substance?
**A.** The value was 1.0 ± 0.5%.

**Q.** What about the “share of the peptides that reach the nuclei” value [2] of the same substance?
**A.** The value was 10 to 20%.

**Q.** What about the neuritic growth [3] of the same substance?
**A.** Its neuritic growth is “none of the mutants pAntp40P2, pAntp50A, and pAntp48S was able to promote neurite growth”.

**Q.** “pAntp48S: mutant pAntp, Trp^48, Phe^49 and Glu^50 in helix 3 replaced by a single serine residue (SEQ ID NO. 11)” was tested. Which “internalization / translocation through the membrane” value [2] did it give?
**A.** Its value is “unable to translocate through the membrane”.

**Q.** And the “MEDIUM (peptide distribution, radioactivity in fraction)” value [2]?
**A.** The value was 96.5 ± 1%.

**Q.** And the “NUCLEAR (peptide distribution, radioactivity in fraction)” value [2]?
**A.** Its value is 2.5 ± 0.5%.

**Q.** And the “POST-NUCLEAR (peptide distribution, radioactivity in fraction)” value [2]?
**A.** Its value is 1.0 ± 0.5%.

**Q.** And the neuritic growth [3]?
**A.** The neuritic growth was “none of the mutants pAntp40P2, pAntp50A, and pAntp48S was able to promote neurite growth”.

**Q.** For “pAntp50A: mutant recombinant pAntp, Glu^50 →Ala^50 substitution in helix 3 plus His^36 →Tyr cloning artifact (SEQ ID NO: 10)”, which “uptake and nuclear accumulation by confocal microscopy” value [1] is on record?
**A.** Its value is “taken up by all cells in the population and significant concentrations of the peptides accumulated in the nuclei”.

**Q.** And the “internalization / translocation through the membrane” value [2]?
**A.** Its value is “internalized rapidly”.

**Q.** What about the “MEDIUM (peptide distribution, radioactivity in fraction)” value [2] of the same substance?
**A.** The value was 75.0 ± 6%.

**Q.** And the “NUCLEAR (peptide distribution, radioactivity in fraction)” value [2]?
**A.** Its value is 19.0 ± 5%.

**Q.** And the “POST-NUCLEAR (peptide distribution, radioactivity in fraction)” value [2]?
**A.** Its value is 6.0 ± 1%.

**Q.** And the “share of the peptides that reach the nuclei” value [2]?
**A.** The value was 10 to 20%.

**Q.** What about the neuritic growth [3] of the same substance?
**A.** Its neuritic growth is “none of the mutants pAntp40P2, pAntp50A, and pAntp48S was able to promote neurite growth”.

**Q.** How did the “intracellular localization of the fluorescent label (penetration)” value (shortened to “intracellular localization”) (living neurons) turn out when “pAntp 41-55: synthetic biotinylated peptide, amino-acids 41-55 of pAntp (SEQ ID NO: 9)” was run?
**A.** Its value is “not”.

**Q.** “pAntp 41-60: synthetic biotinylated peptide, amino-acids 41-60 of pAntp (SEQ ID NO: 7) (TERQIKIWFQNRRMKWKKEN; also: biotinylated, site not given here)” was tested. Which “intracellular localization” value (living neurons) did it give?
**A.** The value was “intracellular localization of the fluorescent label”.

**Q.** For “pAntp 43-58: synthetic biotinylated peptide, amino-acids 43-58 of pAntp, helix 3 (SEQ ID NO: 8) (RQIKIWFQNRRMKWKK; also: biotinylated, site not given here)”, which “intracellular localization” value (living neurons) is on record?
**A.** The value was “intracellular localization of the fluorescent label”.
